Data on one molecule can be found in US20230218654A1, “COMPOSITIONS AND METHODS FOR TREATING HYPERGLYCEMIA IN TYPE-2 DIABETES” (The Board of Regents of the university of Oklahoma, priority 2020, published 2023).

“Also recorded” adds a separate entry of the source.

Assay [1] relates to hepatic CRL (cullin) neddylation and hepatic insulin signaling. Briefly: Western blot of liver lysates after acute MLN4924 injection. Type of assay: in vivo. Particulars: chow-fed mice, 6 h fast; for hepatic CRL (cullin) neddylation: 60 mg/kg at 5 pm day 1 and 9 am day 2 (IP or SQ). How it is done:
A. Western blot of liver lysates. Chow-fed male C56BL/6J mice were injected with 60 mg/kg MLN4924 or Vehicle (10% 2HO-β-cyclodextrin) at 5 pm on day 1 and 9 am on day 2, and sacrificed at 3 pm after 6 h fast. Upper arrow: Neddylated Cul3; Lower arrow: de-neddylated Cul3. Veh=vehicle; IP=intraperitoneal; SQ=subcutaneous.
FIG. 12A is a Western blot showing that MLN4924 inhibits liver cullin neddylation and increases IRS protein abundance and insulin signaling activation. Chow-fed male C56BL/6J mice were subcutaneously (SQ) injected 60 mg/kg MLN4924 or Veh (10 % 2HO-β-cyclodextrin) at 5 pm on day 1 and 9 am on day 2. Mice were fasted from 9 am to 3 pm on day 2 and sacrificed. Upper and lower arrows indicate neddylated cullin1 and cullin3 bands, respectively.
(§1) MLN4924 and TAS4464 were purchased from MedChemExpress (MCE, Monmouth Junction, NJ). For cell treatment, MLN4924 and TAS4464 were dissolved in DMSO. Cells were serum starved overnight and then treated with MLN4924, TAS4464 and/or insulin as indicated. For injection in mice, MLN4924 and TAS4464 were first dissolved in DMSO, which was further suspended in 10% (2-hydroxypropyl)-β-cyclodextrin (Sigma, St. Louis, MO). The final solution contains 1% DMSO. The subcutaneous injection volume is 200 µl/mouse.
Protein lysates were prepared in RIPA buffer containing 1% SDS and protease inhibitors on ice for 1 h followed by brief sonication. After centrifugation, supernatant was used for SDS-PAGE and immunoblotting.
WT male C57BL/6J mice were purchased from the Jackson Lab (Bar Harbor, ME). Western diet (TD. 88137, Envigo Inc. Indianapolis, IN) contains 42% fat calories and 0.2% cholesterol. Mice were housed in micro-isolator cages with corn cob bedding under 7 am - 7 pm light cycle and 7 pm -7 am dark cycle. MLN4924 was prepared in 10% 2-hydroxypropyl-b-cyclodextrin to a final concentration of 3 mg/ml. All mice were fasted for 6 h from 9 am to 3 pm before euthanasia. All animals received humane care according to the criteria outlined in the “Guide for the Care and Use of Laboratory Animals.” All animal protocols were approved by the Institutional Animal Care and Use Committee at the University of Kansas Medical Center and the University of Oklahoma Health Sciences Center.
Human normal livers (less than 5% steatosis) and histologically confirmed NASH livers were obtained from either the University of Kansas Liver Center or the Liver Tissue Cell Distribution System (LTCDS) at the University of Minnesota. Human and mouse tissue samples were homogenized in 1XRIPA buffer containing 1% SDS and protease inhibitors. After incubation on ice for 1 hour, the samples were centrifugation and supernatant was transferred to a new tube. The protein lysate was mixed with equal volume of 2X laemmli buffer and incubated at 95° C. for 5 minutes and used for SDS-PAGE and immunoblotting. ImageJ software (NIH) was used to determine band intensity.
To further explore the hepatic insulin sensitizing effect of neddylation inhibition in vivo, we administered MLN4924 to chow-fed mice twice via subcutaneous (SQ) injection (5 pm on day 1 and 9 am on day 2) and studied the acute effect of MLN4924. The dose of 60 mg/kg is in line with published literature. […] In addition to liver, skeletal muscle is another organ that quantitatively contribute to plasma glucose homeostasis.
In general terms: Immunoblotting shows a protein as a band on a membrane.

In assay [2] the test system is male C57BL/6J mice fed C or WD. Briefly: Intervention study: MLN4924 initiated after 8 weeks of WD feeding. Type of assay: in vivo. How it is done: MLN4924 (60 mg/kg, SQ) was given every other day for the last 8 weeks of the 16-week feeding. For both cohorts, body weight was measured weekly. Results are mean ±SEM. n=5-7. “*”, vs C+Veh; “#”, vs. WD+Veh, p<0.05. ns= Not significant.
Male C57BL/6J mice were fed chow or WD for 16 weeks. Vehicle or MLN4924 treatment (60 mg/kg, SQ, once every two days) was initiated after 8 weeks of WD feeding. Analyses were performed after 16 weeks of feeding. Results are mean ± SEM. n=5-8. “*”, vs C+Veh; “#”, vs. WD+Veh, p<0.05. Normalized densitometry was shown in low panel bar graphs.
Male C57BL/6J mice were purchased from the Jackson Laboratory (Bar Harbor, ME). Mice were fed a regular chow (C) diet or a Western diet (WD) that contains 42% fat calories and 0.2% cholesterol content (TD. 88137, Envigo Inc. Indianapolis, IN).
as §1
Lipids were extracted in a mixture of chloroform: methanol (2:1; v: v), dried under nitrogen, and resuspended in isopropanol containing 1% triton X-100. Total cholesterol, free cholesterol and TG were measured with assay kits following the manufacturer’s instruction. Total cholesterol assay kit and TG assay kit were purchased from Pointe Scientific (Canton, MI).
Aspartate aminotransferase (AST) and alanine aminotransferase (ALT) assay kits were purchased from Pointe Scientific (Canton, MI). Free fatty acid assay kit was purchased from Biovision Inc. (Milpitas, CA). Insulin ELISA kit was purchased from Crystal Chem Inc. (Elk Grove Village, IL).
Next investigated was the glucose lowering effect of CRL inhibition in mice rendered obese and insulin resistant by 16-weeks of WD feeding. […] Next conducted was an intervention study in which MLN4924 treatment was initiated after mice were fed WD for 8 weeks that rendered mice obese and insulin resistant. […] In summary, robust evidence is provided herein that pharmacological CRL inhibition is an effective approach to lowering hyperglycemia.

Assay [3] has as its system differentiated C2C12 myocytes. Briefly: Glucose uptake assay. Type of assay: cell-based. The note with it: 500 nM MLN4924 6 h, 100 nM insulin 1 hour. How it is done: Differentiated C2C12 myocytes were treated with MLN4924 (500 nM) and then stimulated with 100 nM insulin as indicated. Glucose uptake into the cells was measured. Glucose uptake into the cells was increased in the presence of MLN4924.Results are mean+/-SD of 5 replicates. “* ”, p less than 0.05, vs Vehicle-treated control.“#”, vs. insulin treated, p less than 0.05.
C2C12 myoblast cells were cultured in DMEM medium supplemented with 10% FBS. When cells grow to 60% confluency, differentiation into myocytes was induced by culturing cells in DMEM supplemented with 2% horse serum for 4-6 days. Cells were then serum starved overnight and treated with 500 nM MLN4924 or DMSO for 6 h and then stimulated with 100 nM insulin for 1 hour as indicated. Glucose uptake was measured with a Glucose uptake Glo^tm assay kit that was purchased from Promega (Madison, WI).

Where [4] appears, read: WD 16 weeks, 60 mg/kg SQ every other day for last 8 weeks.

For `NS(=O)(=O)OC[C@@H]1C[C@@H](n2ccc3c(N[C@H]4CCc5ccccc54)ncnc32)C[C@@H]1O` [MLN4924, ((1S,2S,4R)-4-(4-((1S)-2,3-dihydro-1H-inden-1-ylamino)-7H-pyrrolo[2,3-d]pyrimidin-7-yl)-2-hydroxycyclopentyl) methyl sulfamate], in assay [1] (60 mg/kg), the “hepatic CRL (cullin) neddylation” value was “effectively reduced hepatic CRL neddylation”. In addition, in assay [1] (listed as MLN4924, 60 mg/kg), the “hepatic CRL (cullin) neddylation” value is “effectively reduced hepatic cullin neddylation”. Moreover, the “hepatic Y612 phosphorylated IRS1” value in assay [1] (60 mg/kg twice) was “increased Y612 phosphorylated IRS1”. Besides, in assay [1] (60 mg/kg twice, 60 mg/kg), the “hepatic IRS1 and IRS2 protein” value was “rapidly increased hepatic IRS1 and IRS2; also recorded: increased hepatic IRS proteins”; the “hepatic phosphorylated AKT” value is “higher phosphorylated AKT; also recorded: increased hepatic IRS proteins and AKT phosphorylation”. Besides, in assay [2] (setting [4]), the “blood glucose (6 h fast)” value is “normalized blood glucose”, the “hepatic steatosis as measured by liver TGs” value is “lowered hepatic steatosis” and the “serum AST” value is “decreased serum AST”. For the same molecule, the “liver IRS protein abundance” value in assay [2] (WD 16 weeks, 60 mg/kg SQ once every two days after 8 weeks) is listed as “increases liver IRS protein abundance”. In addition, in assay [2] (chronic WD-fed mice), the “hepatic AKT phosphorylation” value was “increased hepatic AKT phosphorylation”. Moreover, in assay [3], the glucose uptake result is recorded as “increased glucose uptake”.
